Two compounds from article PMC9257626 (RSC Chemical Biology, 2022) can be followed below.

This test deals with GAPDH (endogenous, HeLa / Jurkat) (Homo sapiens, UniProt P04406). It counts as biochemical.

Counter-ions that a name gives are not always drawn.

Sequence of GAPDH (endogenous, HeLa / Jurkat) (P04406 2-335 limits assumed): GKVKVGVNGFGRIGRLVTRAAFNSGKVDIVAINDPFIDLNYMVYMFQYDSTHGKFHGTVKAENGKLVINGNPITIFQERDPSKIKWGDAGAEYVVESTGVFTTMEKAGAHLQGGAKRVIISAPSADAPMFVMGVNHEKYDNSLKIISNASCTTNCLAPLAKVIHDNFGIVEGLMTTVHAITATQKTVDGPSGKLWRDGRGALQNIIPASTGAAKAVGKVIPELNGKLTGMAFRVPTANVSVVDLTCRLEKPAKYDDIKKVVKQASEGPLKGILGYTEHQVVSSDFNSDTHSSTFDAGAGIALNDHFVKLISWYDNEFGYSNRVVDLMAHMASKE

On to `O=C(O)C(=O)CBr` [3-BP, 3-bromopyruvate], for which the “loss of SEC1 labeling at 5 μM” value is 3-BP, IA and DMF showed complete loss of SEC1 labeling even at the lower concentration.
Under `COC(=O)/C=C/C(=O)OC` [DMF, dimethyl fumarate] stands 3-BP, IA and DMF showed complete loss of SEC1 labeling even at the lower concentration.
